# Results taken from ChEMBL document CHEMBL4699598, “Discovery of Novel Substituted N-(4-Amino-2-chlorophenyl)-5-chloro-2-hydroxybenzamide Analogues as Potent Human Adenovirus Inhibitors” (J Med Chem, 2020).
# Calls of active or inactive are those of the source. No cut-off for these calls is given here.
# Assays:
# [1] = test system: Human adenovirus 5; assay: Antiviral activity against GFP-fused Human adenovirus 5 infected in 293beta5 cells assessed as inhibition of plaque formation incubated for 7 days by GFP reporter gene assay; format: functional, organism-based; conditions: Human mastadenovirus C, HEK293, 168 h
# [2] = test system: Human adenovirus 5; assay: Antiviral activity against Human adenovirus 5 infected in 293beta5 cells assessed as inhibition of plaque formation at 10 uM incubated for 7 days by GFP reporter gene assay relative to control; format: functional; conditions: Human mastadenovirus C, HEK293, 168 h, time 7 day
# [3] = test system: Human adenovirus 5; assay: Antiviral activity against wild-type Human adenovirus 5 infected in human A549 cells assessed as inhibition of viral entry by measuring nuclear associated viral genome level at 10 fold IC50 incubated for 45 mins by RT-PCR analysis (reference value: 100 +/- 1.07 %); format: functional; set-up: scale not given: the % may be the effect or the level left; conditions: 0.75 h
# [4] = test system: Human adenovirus 5; assay: Antiviral activity against WT-Human adenovirus 5 infected in A549 cells assessed as fold reduction in virus yield at 10 fold of IC50 after 48 hrs endpoint dilution method; format: functional
# [5] = test system: Human adenovirus 5; assay: Antiviral activity against wild-type Human adenovirus 5 infected in human A549 cells assessed as inhibition of virus entry incubated for 48 hrs by fluorescence assay; format: functional, organism-based; conditions: Human mastadenovirus C, A549, 48 h
# [6] = Cytotoxicity against human A549 cells assessed as reduction in cell viability incubated for 48 hrs by alamarBlue assay; format: cell-based
# [7] = test system: Human betaherpesvirus 5; assay: Antiviral activity against human cytomegalovirus infected in HFF cells assessed as inhibition of viral replication by measuring number of viral DNA copies at 2.7 uM incubated for 72 hrs by RT-PCR analysis (reference value: 100 +/- 25.56 %); format: functional; set-up: scale not given: the % may be the effect or the level left
# [8] = test system: Human adenovirus 5; assay: Antiviral activity against wild-type Human adenovirus 5 infected in human A549 cells assessed as inhibition of viral DNA replication by measuring number of viral DNA copies at 2.7 uM after 24 hrs by RT-qPCR analysis (reference value: 100 +/- 0.16 %); format: functional; set-up: scale not given: the % may be the effect or the level left
# [9] = Selectivity index, ratio of CC50 for cytotoxicity against human A549 cells assessed as reduction in cell viability incubated for 48 hrs by alamarBlue assay to IC50 for antiviral activity against Human adenovirus 5 infected in 293beta5 cells assessed as inhibition of plaque formation incubated for 7 days by GFP reporter gene assay; format: toxicity, cell-based; conditions: read-out: Ratio CC50/IC50
# [10] = test system: Human adenovirus 5; assay: Antiviral activity against Human adenovirus 5 infected in 293beta5 cells assessed as inhibition of virus infection at 10 fold IC50 measured after 5 mins by GFP reporter gene assay relative to control; format: functional, HEK293
# [11] = test system: Human betaherpesvirus 5; assay: Antiviral activity against human cytomegalovirus infected in HFF cells assessed as inhibition of viral replication by measuring number of viral DNA copies at 12 uM incubated for 72 hrs by RT-PCR analysis (reference value: 100 +/- 25.56 %); format: functional; set-up: scale not given: the % may be the effect or the level left
# [12] = test system: Human adenovirus 5; assay: Antiviral activity against Human adenovirus 5 infected in 293beta5 cells assessed as inhibition of virus infection at 10 fold of IC50 measured at 0 min by GFP reporter gene assay relative to control; format: functional, HEK293
# [13] = test system: Human adenovirus 5; assay: Antiviral activity against wild-type Human adenovirus 5 infected in human A549 cells assessed as inhibition of viral DNA replication by measuring number of viral DNA copies at 12 uM after 24 hrs by RT-qPCR analysis (reference value: 100 +/- 0.16 %); format: functional; set-up: scale not given: the % may be the effect or the level left
# [14] = test system: Human adenovirus 5; assay: Antiviral activity against wild-type Human adenovirus 5 infected in human A549 cells assessed as inhibition of viral DNA replication by measuring number of viral DNA copies at […] after 24 hrs by RT-qPCR analysis (reference value: 100 +/- 0.16 %); format: functional; set-up: scale not given: the % may be the effect or the level left; conditions: dose 11.1 µM
# [15] = test system: Human betaherpesvirus 5; assay: Antiviral activity against human cytomegalovirus infected in HFF cells assessed as inhibition of viral replication by measuring number of viral DNA copies at […] incubated for 72 hrs by RT-PCR analysis (reference value: 100 +/- 25.56 %); format: functional; set-up: scale not given: the % may be the effect or the level left; conditions: dose 11.1 µM
# [16] = test system: Human adenovirus 5; assay: Antiviral activity against Human adenovirus 5 infected in 293beta5 cells assessed as inhibition of virus infection at 10 fold IC50 measured after 60 mins by GFP reporter gene assay relative to control; format: functional, HEK293; conditions: 1 h
# [17] = test system: Human adenovirus 5; assay: Antiviral activity against wild-type Human adenovirus 5 infected in human A549 cells assessed as inhibition of viral DNA replication by measuring number of viral DNA copies at 9 uM after 24 hrs by RT-qPCR analysis (reference value: 100 +/- 0.16 %); format: functional; set-up: scale not given: the % may be the effect or the level left
# [18] = test system: Human betaherpesvirus 5; assay: Antiviral activity against human cytomegalovirus infected in HFF cells assessed as inhibition of viral replication by measuring number of viral DNA copies at 9 uM incubated for 72 hrs by RT-PCR analysis (reference value: 100 +/- 25.56 %); format: functional; set-up: scale not given: the % may be the effect or the level left
# [19] = test system: Human adenovirus 5; assay: Antiviral activity against wild-type Human adenovirus 5 infected in human A549 cells assessed as inhibition of viral DNA replication by measuring number of viral DNA copies at 9.3 uM after 24 hrs by RT-qPCR analysis (reference value: 100 +/- 0.16 %); format: functional; set-up: scale not given: the % may be the effect or the level left
# [20] = test system: Cytomegalovirus; assay: Antiviral activity against human cytomegalovirus infected in HFF cells assessed as decrease in number of viral DNA copies at 9.3 uM incubated for 72 hrs by RT-PCR analysis (reference value: 100 +/- 25.56 %); format: functional; set-up: scale not given: the % may be the effect or the level left
# [21] = test system: Human adenovirus 5; assay: Antiviral activity against Human adenovirus 5 infected in 293beta5 cells assessed as inhibition of virus infection at 10 times IC50 measured after 10 to 20 mins by GFP reporter gene assay relative to control; format: functional, organism-based; conditions: HEK293, time min 10-20
# [22] = test system: Human betaherpesvirus 5; assay: Antiviral activity against human cytomegalovirus infected in HFF cells assessed as inhibition of viral replication by measuring number of viral DNA copies at 7.8 uM incubated for 72 hrs by RT-PCR analysis (reference value: 100 +/- 25.56 %); format: functional; set-up: scale not given: the % may be the effect or the level left
# [23] = test system: Human adenovirus 5; assay: Antiviral activity against wild-type Human adenovirus 5 infected in human A549 cells assessed as inhibition of viral DNA replication by measuring number of viral DNA copies at 7.8 uM after 24 hrs by RT-qPCR analysis (reference value: 100 +/- 0.16 %); format: functional; set-up: scale not given: the % may be the effect or the level left
# [24] = test system: Human adenovirus 5; assay: Antiviral activity against wild-type Human adenovirus 5 infected in human A549 cells assessed as inhibition of viral DNA replication by measuring number of viral DNA copies at 12.7 uM after 24 hrs by RT-qPCR analysis (reference value: 100 +/- 0.16 %); format: functional; set-up: scale not given: the % may be the effect or the level left
# [25] = test system: Human betaherpesvirus 5; assay: Antiviral activity against human cytomegalovirus infected in HFF cells assessed as inhibition of viral replication by measuring number of viral DNA copies at 12.7 uM incubated for 72 hrs by RT-PCR analysis (reference value: 100 +/- 25.56 %); format: functional; set-up: scale not given: the % may be the effect or the level left
SMILES,IC50 [1] [nM],IC50 [5] [µM],inhibition at 10 µM [2] [%],Activity [3] [%],fold change (FC) [4],CC50 at 48 h [6] [µM],selectivity ratio at 48 h [9],inhibition (INH) [12] [%],other results
CC1(Nc2ccc(NC(=O)c3cc(Cl)ccc3O)c(Cl)c2)CCCC1,270,15.2,100,53.7,52.6,157,581,,Activity [7]: 91.25%; Activity [8]: 20.21%; inhibition (INH) [10]: <50%
CC(CCO)Nc1ccc(NC(=O)c2cc(Cl)ccc2O)c(Cl)c1 (stereo not given),1200,30.8,,98.96,9.3,200,167,<50,Activity [11]: 22.47%; Activity [13]: 80.94%
CC(C)(C)OC(=O)N1CCC(CNc2ccc(NC(=O)c3cc(Cl)ccc3O)c(Cl)c2)CC1,930,< 3.13,,59.54,232,92,102,,Activity [19]: 2.49%; Activity [20]: 15.58%; inhibition [21]: inactive
CC(C)(Cc1ccccc1)ON(c1ccc(NC(=O)c2cc(Cl)ccc2O)c(Cl)c1)C(C)(C)Cc1ccccc1,1270,34.1,100,95.87,21.5,165,130,,Activity [24]: 2.37%; Activity [25]: 9.15%; inhibition (INH) [10]: <50%

# More lines, main results first:
IC50 [1] [nM],IC50 [5] [µM],SMILES,inhibition at 10 µM [2] [%],Activity [3] [%],fold change (FC) [4],CC50 at 48 h [6] [µM],selectivity ratio at 48 h [9],inhibition (INH) [12] [%],other results
1110,25,O=C(Nc1ccc(NCc2ccc(O)cc2)cc1Cl)c1cc(Cl)ccc1O,,11.56,17.4,116,104,,Activity [14]: 83.72%; Activity [15]: 15.71%; inhibition (INH) [16]: >=50%
900,,CC(C)(CCO)Nc1ccc(NC(=O)c2cc(Cl)ccc2O)c(Cl)c1,,99.97,15.7,170,188,<50,Activity [17]: 65.04%; Activity [18]: 14.35%
780,> 50,O=C(Nc1ccc(NCc2ccc(O)nc2)cc1Cl)c1cc(Cl)ccc1O,100,13.6,26.6,98.5,126,<50,Activity [22]: 18.18%; Activity [23]: 53.62%
